# According to patent publication US7972829B2, “Process for producing transglutaminase” (Ajinomoto Co., Inc., priority 1999, dated 2011):
# “Also recorded” adds a separate entry of the source. Like-named read-outs stand apart in the source and are kept apart here. *1 amine or outer side, *2 acyl side, *3 side chain or, on linkers, in order; H or OH if unused. Where a SMILES comes first, the peptide text is derived from it. Primed or numbered codes have the meaning given here. Where no end group is shown, it is not given here. [ ]: non-standard residue; d: D form. The star is where a group is joined. Sta = CC(C)C[C@H](N)[C@@H](O)CC(=O)O; pNA = O=[N+]([O-])c1ccc(N*)cc1; Suc = O=C(CCC(=O)[*:2])[*:1]; Isovaleryl = CC(C)CC(=O)*; code Z = not defined here; βNA = c1ccc2cc(N*)ccc2c1; Bz′ = not defined here; Cbz = O=C(OCc1ccccc1)*
# B1: transglutaminase: S. mobaraense transglutaminase secreto-produced as pro-form in C. glutamicum ATCC13869, pro-structure part cleaved by protease (protein)
# chain: DSDDRVTPPAEPLDRMPDPYRPSYGRAETVVNNYIRKWQQVYSHRDGRKQQMTEEQREWLSYGCVGVTWVNSGQYPTNRLAFASFDEDRFKNELKNGRPRSGETRAEFEGRVAKESFDEEKGFQRAREVASVMNRALENAHDESAYLDNLKKELANGNDALRNEDARSPFYSALRNTPSFKERNGGNHDPSRMKAVIYSKHFWSGQDRSSSADKRKYGDPDAFRPAPGTGLVDMSRDRNIPRSPTSPGEGFVNFDYGWFGAQTEADADKTVWTHGNHYHAPNGSLGAMHVYESKFRNWSEGYSDFDRGAYVITFIPKSWNTAPDKVKQGWP
# modifications: Streptoverticillium mobaraense
# notes: S. mobaraense transglutaminase secreto-produced as pro-form in C. glutamicum ATCC13869, pro-structure part cleaved by protease
# B2: svPEP: proline-specific peptidase produced by S. mobaraense IFO13819; mature sequence SEQ ID NO:40 (protein)
# chain: QADIKDRILKIPGMKFVEEKPYQGYRYLVMTYRQPVDHRNPGKGTFEQRFTLLHKDTDRPTVFFTSGYNVSTNPSRSEPTRIVDGNQVSMEYRFFTPSRPQPADWSKLDIWQAASDQHRLYQALKPVYGKNWLATGGSKGGMTATYFRRFYPNDMNGTVAYVAPNDVNDKEDSAYDKFFQNVGDKACRTQLNSVQREALVRRDEIVARYEKWAKENGKTFKVVGSADKAYENVVLDLVWSFWQYHLQSDCASVPATKASTDELYKFIDDISGFDGYTDQGLERFTPYYYQAGTQLGAPTVKNPHLKGVLRYPGINQPRSYVPRDIPMTFRPGAMADVDRWVREDSRNMLFVYGQNDPWSGEPFRLGKGAAARHDYRFYAPGGNHGSNIAQLVADERAKATAEVLKWAGVAPQAVQKDEKAAKPLAPFDAKLDRVKNDKQSALRP
# modifications: Streptoverticillium mobaraense
# Tests used:
# [1] = test system: proline specific peptidase (svPEP); test: Substrate specificity of svPEP (cleaving activity on pNA-, βNA-conjugated peptides and peptides); format: biochemical, S. mobaraense IFO13819; details: for relative activity (specificity of svPEP for peptide substrate): 20 mM sodium phosphate buffer pH 6.5, 37° C., 5 min, AAP-pNA = 100; for substrate recognition by svPEP (in words): cleavage at carboxyl terminal side of proline residue
# [2] = test system: proline specific peptidase (svPEP); test: Effects of inhibitors on the activity of proline specific peptidase (svPEP), Ala-Ala-Pro-pNA as substrate; format: biochemical, S. mobaraense IFO13819; details: for inhibition of svPEP activity (in words): Ala-Ala-Pro-pNA as substrate
# [3] = Transglutaminase activity by hydroxamate method; format: biochemical
# [4] = Isoelectric point of svPEP; format: physicochemical
# [5] = Enzyme properties of svPEP (optimum pH, pH stability, optimum temperature, temperature stability); format: biochemical
# Description: were used as a buffer, respectively. The enzyme was allowed to act on Ala-Ala-Pro-pNA as the substrate at 30° C. for 5 minutes. Relative activity of the enzyme in each buffer was calculated compared to the activity in 20 mM sodium phosphate buffer, pH6.5 as 100%. […] (iii) pH Stability
# 0.15 M GTA buffers (buffers composed of 3,3-dimethylglutaric acid, tris(hydroxymethyl)aminomethane, 2-amino-2-methyl-1,3-propanediol) ranging between pH 3 and pH10 were used. To 20 µl of purified enzyme solution, 40 μl of the buffer at each pH was added and the reaction mixtures were allowed to stand overnight at 4° C., then adjusted to pH 7.0 and the volume was made up to 120 μl. To 50 μl aliquots, Ala-Ala-Pro-pNA was added and the reaction was performed at 30° C. for 5 minutes. Relative amounts of substrate which the enzyme decomposed at each pH were considered to be the remaining activity compared to the activity of the enzyme as 100% when the enzyme was stored under the same condition as described above except for pH 7.0.
# To 50 μl of purified enzyme solution, 0.5 ml of 20 mM sodium phosphate buffer (pH 6.5) was added and Ala-Ala-Pro-pNA was added up to 0.25 mM and the mixture was maintained at 20° C.-60° C. for 5 minutes to effect decomposition reaction. Relative amount of substrate which the enzyme decomposed was considered to be the relative activity at each temperature, compared to the amount of substrate decomposition at 25° C. as 100% activity.
# To 50 μl of purified enzyme solution, 0.5 ml of 20 mM sodium phosphate buffer (pH 6.5) was added. The mixture was maintained at 4° C. or 20° C.-60° C. for 15 minutes and then cooled on ice. Ala-Ala-Pro-pNA was added up to 0.25 mM and the mixture was maintained at 30° C. for 5 minutes. The remaining activity was calculated assuming the activity of the enzyme which was treated at 4° C. to be 100%.
# [6] = compound 1 mM, 10 min room temperature, then Ala-Ala-Pro-pNA, 30° C., 5 min, activity without compound = 100%
# [7] = compound 10 mM, 10 min room temperature, then Ala-Ala-Pro-pNA, 30° C., 5 min, activity without compound = 100%
molecule,measurement,setting,value
Phe-Arg-Ala-Pro-pNA (FRAP-pNA),relative activity (specificity of svPEP for peptide substrate),[1],49.0%
same,substrate recognition by svPEP (in words),[1],preferably recognized
NC(=O)CI [Iodoacetamide],relative activity,[2],87%
CC(C)C[C@H](NC(=O)[C@@H](O)[C@H](N)Cc1ccccc1)C(=O)O [Bestatin],relative activity,[2]; [6],97.6%
O=S(=O)(F)Cc1ccccc1 [Phenylmethylsulfonylfluoride],inhibition of svPEP activity (in words),[2]; listed as phenyl methylsulfonylfluoride,comparatively strong inhibition
same,inhibition of svPEP activity (in words),[2]; listed as phenylmethylsulfonyl fluoride,inhibited
same,relative activity,[2]; [6],39.7%
O=C[C@@H]1CCCN1C(=O)[C@@H]1CCCN1C(=O)OCc1ccccc1 [Z-Pro-(S)Prolinal] (Cbz-Pro-Pro-aldehyde),relative activity,[2]; [6],105.8%
p-pNA,relative activity (specificity of svPEP for peptide substrate),[1],0.04%
"Ala-Ala-Pro-pNA [AAP-pNA, p-nitroanilide peptide substrate for svPEP]",relative activity (specificity of svPEP for peptide substrate),[1],100%
same,substrate recognition by svPEP (in words),[1],preferably recognized
O=C(O)c1cc[c]([Hg][Cl])cc1 [p-Chloromercuribenzoic acid],inhibition of svPEP activity (in words),[2],inhibited to some extent
same,relative activity,[2]; [6],87.1%
AAA-pNA,relative activity (specificity of svPEP for peptide substrate),[1],8.5%
AAPL-pNA [p-nitroanilide peptide substrate for svPEP],relative activity (specificity of svPEP for peptide substrate),[1],0.3%
Z-GAP-βNA ({code Z}-Gly-Ala-Pro-βNA; reading uncertain; also: printed as Z-GAP-βNA) [β-naphtylamido peptide substrate for svPEP],relative activity (specificity of svPEP for peptide substrate),[1],1.2%
CC(C)C[C@H](NC(=O)[C@@H](NC(=O)N[C@@H](Cc1ccccc1)C(=O)O)[C@@H]1CCN=C(N)N1)C(=O)N[C@H](C=O)Cc1ccccc1 [Chymostatin],relative activity,[2],84.9%
O[C@H](CS)[C@H](O)CS (racemic) [Dithiothreitol],relative activity,[2]; [7],102.5%
CC(C)CC(=O)N[C@H](C(=O)N[C@H](C(=O)N[C@@H](CC(C)C)[C@@H](O)CC(=O)N[C@@H](C)C(=O)N[C@@H](CC(C)C)[C@@H](O)CC(=O)O)C(C)C)C(C)C [Pepstatin] (Isovaleryl-VV[Sta]A[Sta]-OH),relative activity,[2]; [6],165.7%
PSFRAP-pNA [p-nitroanilide peptide substrate for svPEP],relative activity (specificity of svPEP for peptide substrate),[1],0.2%
Aminoethylbenzenesulfonylfluoride hydrochloride,inhibition of svPEP activity (in words),[2]; hydrochloride,comparatively strong inhibition; also recorded: inhibited
same,relative activity,"[2]; compound 4 mM, 10 min room temperature, then Ala-Ala-Pro-pNA, 30° C., 5 min, activity without compound = 100%",59.9%
AAF-pNA (Ala-Ala-Phe-pNA) [p-nitroanilide peptide substrate for svPEP],relative activity (specificity of svPEP for peptide substrate),[1],4.1%
Z-AGP-βNA ({code Z}-Ala-Gly-Pro-βNA; reading uncertain; also: printed as Z-AGP-βNA) [β-naphtylamido peptide substrate for svPEP],relative activity (specificity of svPEP for peptide substrate),[1],0.78%
O=C[C@@H]1CCCN1C(=O)[C@@H]1CCCN1C(=O)OCc1ccccc1 [Z-Pro-Prolinal] (Cbz-Pro-Pro-aldehyde),relative activity,[2]; [6],99.7%
Suc-AAPF-pNA [p-nitroanilide peptide substrate for svPEP],relative activity (specificity of svPEP for peptide substrate),[1],0.01%
"Ala-Phe-Pro-pNA [AFP-pNA, p-nitroanilide peptide substrate for svPEP]",relative activity (specificity of svPEP for peptide substrate),[1],26.3%
same,substrate recognition by svPEP (in words),[1],preferably recognized
O=C[C@@H]1CCCN1C(=O)[C@@H]1CCCN1C(=O)OCc1ccccc1 [Z-(S)Pro-(S)Prolinal] (Cbz-Pro-Pro-aldehyde),relative activity,[2]; [6],111.2%
"c1cnc2c(c1)ccc1cccnc12 [1,10-Phenanthroline]",relative activity,[2]; [6],92.5%
CCN1C(=O)C=CC1=O [N-Ethylmaleimide],relative activity,[2]; [6],98.3%
SFRAP-pNA [p-nitroanilide peptide substrate for svPEP],relative activity (specificity of svPEP for peptide substrate),[1],1.23%
O=C(O)CN(CCN(CC(=O)O)CC(=O)O)CC(=O)O [EDTA],relative activity,[2]; [7],105.2%
"Bz-Phe-Val-Arg-pNA ({Bz′}-Phe-Val-Arg-pNA) [Bz-FVR-pNA, p-nitroanilide peptide substrate]",relative activity (specificity of svPEP for peptide substrate),[1],0.002%
B1,specific activity,"[3]; after Dispase digestion (37° C., pH 7.5, 1 hour) of culture supernatant of C. glutamicum ATCC13869 harboring pVKPTG1-4 or pPKPTG1-4",about 20 U/mg
same,specific activity,"[3]; after Dispase digestion (37° C., pH 7.5, 1 hour) of culture supernatant of C. glutamicum harboring pVKSPTG1, pVTSPTG1, pPKSPTG1 or pPTSPTG1",about 20 U/mg
same,specific activity,"[3]; culture supernatant of C. glutamicum harboring pVSS1 (SAMP45) and pPKSPTG1, Phe-Arg-Ala-Pro added at N-terminal",about 20 U/mg
same,specific activity,[3]; culture supernatant of C. glutamicum harboring pVSS1 and pPKSPTG11 or pPKSPTG12,about 20 U/mg
same,specific activity,[3]; culture supernatant of C. glutamicum harboring pVSSSP1 (SAMP45 and svPEP) and pPKSPTG1,about 20 U/mg
same,specific activity,"[3]; pro-structure cleaved with culture medium of S. mobaraense IFO13819, 30° C., 6 hours",about 20 U/mg
same,specific activity,"[3]; pro-structure cleaved with washed cells of S. mobaraense, 30° C., 6 hours",about 20 U/mg
B2,isoelectric point,[4],10.2
same,optimum pH,"[5]; Ala-Ala-Pro-pNA, 30° C., 5 min",6.0-6.5
same,pH stability (stable at pH),[5]; overnight at 4° C. in 0.15 M GTA buffers pH 3 to 10,4-9
same,optimum temperature,"[5]; pH 6.5, 20° C.-60° C., 5 min",25-30 °C
same,temperature stability (stable below),"[5]; pH 6.5, 15 min at 4° C. or 20° C.-60° C.",below 20 °C
